Activity calls are given as the source filed them. Rule as the data show it: actives have a measured IC50 and inactives only a lower limit.
target: Envelope glycoprotein gp160 (Human immunodeficiency virus 1, UniProt Q6QLK5); assay: inhibitors of HIV fusion peptide binding, primary screen, biochemical, uHTS, fluorescence dequenching (AID 1986)
Sequence (Q6QLK5 whole entry, the tested form may be a part): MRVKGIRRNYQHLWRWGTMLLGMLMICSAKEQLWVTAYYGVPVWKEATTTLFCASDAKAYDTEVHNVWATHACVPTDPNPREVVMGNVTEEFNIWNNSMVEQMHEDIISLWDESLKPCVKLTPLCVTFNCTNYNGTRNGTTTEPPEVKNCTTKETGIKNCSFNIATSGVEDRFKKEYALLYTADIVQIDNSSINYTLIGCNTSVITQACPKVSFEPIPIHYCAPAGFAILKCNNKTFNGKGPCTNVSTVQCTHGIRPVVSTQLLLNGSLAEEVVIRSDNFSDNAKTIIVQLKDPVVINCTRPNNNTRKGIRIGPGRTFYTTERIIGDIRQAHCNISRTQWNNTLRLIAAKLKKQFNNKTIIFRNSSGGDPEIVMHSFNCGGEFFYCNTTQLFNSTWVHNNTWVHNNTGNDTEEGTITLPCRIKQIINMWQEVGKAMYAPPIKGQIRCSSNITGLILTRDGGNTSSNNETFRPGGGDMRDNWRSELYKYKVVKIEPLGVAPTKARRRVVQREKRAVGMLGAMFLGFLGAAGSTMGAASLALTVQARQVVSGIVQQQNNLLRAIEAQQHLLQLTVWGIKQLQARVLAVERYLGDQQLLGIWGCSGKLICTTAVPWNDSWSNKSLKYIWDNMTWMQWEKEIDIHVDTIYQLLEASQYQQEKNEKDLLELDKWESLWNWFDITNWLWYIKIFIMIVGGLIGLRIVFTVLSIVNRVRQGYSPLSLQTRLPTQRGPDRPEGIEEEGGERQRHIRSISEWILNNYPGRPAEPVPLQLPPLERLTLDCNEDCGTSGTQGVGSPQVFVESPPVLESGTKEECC

SMILES	IC50
O=C(O)c1cccc(-n2cccc2/C=C2/NC(=O)N(c3ccc(Cl)cc3)C2=O)c1	16.9 µM (active)
COc1cc(/C=C2\C(=N)N3N=C(S(C)(=O)=O)SC3=NC2=O)cc(OC)c1OCCOc1cccc(C)c1	13.8 µM (active)
N#Cc1c(O)nc(SCC(=O)Nc2ccc(OC(F)(F)Cl)cc2)nc1-c1ccccc1	15.6 µM (active)
